Measurements taken from publication PMC9100072, “Modulation of the MOP Receptor (μ Opioid Receptor) by Imidazo[1,2-a]imidazole-5,6-Diones: In Search of the Elucidation of the Mechanism of Action” (Molecules, 2022).
“And” between values parts separate entries of the source, which are not always exact repeats. Equal values may be shown once. Read-outs that look alike come from different tables or passages of the source.

How the values were obtained:
human μ-opioid receptor = target: T1, human μ-opioid receptor (Homo sapiens, UniProt P35372); assay: biochemical; type: binding; conditions: for binding to the μ-opioid receptor: tested concentrations 10^−5–10^−10 M
T1 construct: purchased Perkin Elmer ES-542-M400UA; host or cells: CHO-K1 cells, stably transfected (membranes)
Protocol: The reaction was terminated by rapid filtration through GF/B filter mate presoaked with 0.5% polyethyleneimine for 30 min. […] Data were fitted to a one-site curve-fitting equation with Prism 6 (GraphPad Software), and Ki values were estimated from the Cheng–Prusoff equation.

[1] = target: T2, human μ-opioid (OP3) receptor (Homo sapiens, UniProt P35372); assay: cell-based; type: cell-based; parameters: Emax: dose or concentration left out as unconfirmed
[2] = target: T2, human μ-opioid (OP3) receptor; assay: cell-based; conditions: for Emax at 0.03 µM / Emax: U2OS; for Emax at 0.03 µM: read-out: Emax% (EC87: 30 nM) Antagonist Mode
[3] = CHO-K1; read-out: Emax% Agonist Mode
[4] = CHO-K1; read-out: Emax% Antagonist Mode
[5] = read-out: Emax% (EC20: 1 nM) Antagonist Mode
[6] = CHO-K1, read-out: Emax% Antagonist Mode

T1 sequence (P35372 whole entry): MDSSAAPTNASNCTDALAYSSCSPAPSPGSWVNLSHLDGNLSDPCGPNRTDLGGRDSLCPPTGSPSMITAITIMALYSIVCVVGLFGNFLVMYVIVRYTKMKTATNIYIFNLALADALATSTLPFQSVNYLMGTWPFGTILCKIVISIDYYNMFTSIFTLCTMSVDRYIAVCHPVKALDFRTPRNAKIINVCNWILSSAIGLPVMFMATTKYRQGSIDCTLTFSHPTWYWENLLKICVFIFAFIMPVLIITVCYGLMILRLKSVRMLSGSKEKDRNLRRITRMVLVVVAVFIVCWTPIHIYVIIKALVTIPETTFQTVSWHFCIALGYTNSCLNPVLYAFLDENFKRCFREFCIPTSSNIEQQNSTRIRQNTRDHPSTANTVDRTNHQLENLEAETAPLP
T2 sequence (P35372 whole entry): as above

Structure (SMILES)	binding to the μ-opioid receptor (human μ-opioid receptor)	Emax [1, 3] [%]	Emax [1, 4] [%]	Emax at 0.0046 µM [1, 4] [%]	Emax at 0.03 µM [1, 4] [%]	Emax at 0.03 µM [2] [%]	Emax [2, 5] [%]	Emax ([2]; read-out: Emax% Agonist Mode) [%]	Emax% Antagonist Mode [1]	melting point [°C]	other results
O=C1N=C2N(CCN2c2ccccc2)C1=O [1a]	No binding	15	6	4	9	22	92	8	–	–	–
Cc1cccc(N2CCN3C(=O)C(=O)N=C32)c1 [1b]	No binding	13	10	6	–	12	94	13	5%	220 to 223	–
Cc1ccc(N2CCN3C(=O)C(=O)N=C32)cc1 [1c, 1-(4-methylphenyl)-2,3-dihydro-1H-imidazo[1,2-a]imidazole-5,6-dione]	No binding	13	35	4	–	12	97	15	–	236 to 238	pharmacological classification in words ([1]; from cAMP functional data (with binding data for the modulator conclusion)): weak antagonist properties; pharmacological classification in words ([1]; from cAMP functional data (with binding data for the modulator conclusion); listed as 1-(4-methylphenyl)-2,3-dihydro-1H-imidazo[1,2-a]imidazole-5,6-dione): negative allosteric modulator; Kb ([1]; pKb Range Antagonist Mode): 0.661 nM; Kb ([1]; read-out: pKb Range Antagonist Mode (converted)): 8.91 nM
O=C1N=C2N(CCN2c2cccc(Cl)c2)C1=O [1d]	No binding	13	22	4	5	9	92	15	–	279 to 280	–
O=C1N=C2N(CCN2c2ccc(Cl)cc2)C1=O [1e]	No binding	13	8	12	5	19	89	14	3%	–	–
C[C@@H](O)[C@H](NC(=O)[C@H]1NC(=O)[C@H]([C@@H](C)O)NC(=O)[C@H](CCCNC(=N)N)NC(=O)[C@@H](Cc2c[nH]c3ccccc23)NC(=O)[C@H](Cc2ccc(O)cc2)NC(=O)[C@@H](NC(=O)[C@H](N)Cc2ccccc2)CSSC1(C)C)C(N)=O [CTAP, {d-Phe}-Cys-Tyr-{d-Trp}-Arg-Thr-{Pen}-Thr-NH2 (disulfide bridge: Cys2-Pen7), reference compound]	–	–	–	–	–	–	–	–	–	–	Ki (human μ-opioid receptor): 4.9 nM; Emax ([1]; CHO-K1, read-out: Emax% Agonist Mode): 12%; Emax [1, 6]: 100%; Emax at 0.0046 µM [1, 6]: 100%; Emax at 0.03 µM [1, 6]: 116%
C[C@@H](NC(=O)[C@@H](N)Cc1ccc(O)cc1)C(=O)NCC(=O)N(C)[C@@H](Cc1ccccc1)C(=O)NCCO [DAMGO, (2S)-2-[[2-[[(2R)-2-[[(2S)-2-Amino-3-(4-hydroxyphenyl)propanoyl]-amino]-propanoyl]amino]acetyl]-methylamino]-N-(2-hydroxyethyl)-3-phenylpropanamide, reference compound]	–	–	–	–	–	–	–	–	2%	–	EC20 of DAMGO [1]: 1 nM; EC80 of DAMGO [1]: 18 nM; EC87 of DAMGO [1]: 30 nM; Emax [1, 6]: 0%; Emax at 0.0046 µM [1, 6]: 0%
COC(=O)/C=C/C(=O)N[C@@H]1CC[C@@]2(O)[C@H]3Cc4ccc(O)c5c4[C@@]2(CCN3CC2CC2)[C@H]1O5 [ß-FUNALTREXAMINE, beta-funaltrexamine, reference compound]	–	–	–	–	–	–	–	–	66% and 40% and 46% and 42%	–	pKi Range (human μ-opioid receptor): 9.13 (9.10–9.15); Emax% Agonist Mode [1]: 17%; Emax% (EC20: 1 nM) Antagonist Mode [2]: 122%; Emax% (EC87: 30 nM) Antagonist Mode [2]: 127%; Emax% Agonist Mode ([2]; β-arrestin recruitment, fraction of effect of DAMGO): 10%
